Reference: PubChem BioAssay (NCI)
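96-well plates; 48 h exposure; 5 concentrations. Endpoints by linear interpolation between flanking doses. Not reached: highest tested concentration assigned. GI50: concentration for 50% inhibition of growth. TGI: concentration producing complete growth inhibition.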

Columns and labels:
Assay in all cases: NCI-60 cell line screen, 48 h
IGROV1 ovarian = system: IGROV1 ovarian
U251 CNS = system: U251 CNS
MOLT-4 leukemia = system: MOLT-4 leukemia
PC-3 prostate = system: PC-3 prostate
K-562 leukemia = system: K-562 leukemia
SF-268 CNS = system: SF-268 CNS
UACC-257 melanoma = system: UACC-257 melanoma
OVCAR-5 ovarian = system: OVCAR-5 ovarian
MDA-MB-231 breast = system: MDA-MB-231 breast
SK-MEL-5 melanoma = system: SK-MEL-5 melanoma

| Compound | GI50 (IGROV1 ovarian) | TGI (IGROV1 ovarian) | GI50 (U251 CNS) | TGI (U251 CNS) | GI50 (MOLT-4 leukemia) | TGI (MOLT-4 leukemia) | GI50 (PC-3 prostate) | TGI (PC-3 prostate) | GI50 (K-562 leukemia) | TGI (K-562 leukemia) | GI50 (SF-268 CNS) | TGI (SF-268 CNS) | GI50 (UACC-257 melanoma) | TGI (UACC-257 melanoma) | GI50 (OVCAR-5 ovarian) | TGI (OVCAR-5 ovarian) | GI50 (MDA-MB-231 breast) | TGI (MDA-MB-231 breast) | TGI (SK-MEL-5 melanoma) | GI50 (SK-MEL-5 melanoma) |
| --- | --- | --- | --- | --- | --- | --- | --- | --- | --- | --- | --- | --- | --- | --- | --- | --- | --- | --- | --- | --- |
| CC[C@@]1(OC(=O)CN(C)C)C(=O)OCc2c1cc1n(c2=O)Cc2cc3c(N)cccc3nc2-1 | 0.0609 µM | 0.421 µM | 0.0217 µM | 0.249 µM | < 0.01 µM | 0.211 µM | 0.0524 µM | > 100 µM | 0.0455 µM | > 100 µM | < 0.01 µM | 0.11 µM | 0.0933 µM | 0.981 µM | 0.317 µM | > 100 µM | 1.07 µM | > 100 µM | – | – |
| Clc1cc2ccccc2c2ccccc12 | – | > 100 µM | – | > 100 µM | – | > 100 µM | – | > 100 µM | – | > 100 µM | – | > 100 µM | – | > 100 µM | – | > 100 µM | – | > 100 µM | > 100 µM | – |
| O=C(O)C1OC1C(=O)O (stereo unspecified) | – | > 100 µM | – | > 100 µM | – | – | – | – | – | > 100 µM | – | > 100 µM | – | > 100 µM | – | > 100 µM | – | > 100 µM | > 100 µM | – |
| CN(C)CCNCc1ccc2c(-c3ccccc3)nc3cc(Cl)c(Cl)cc3n12 | – | 22.6 µM | – | 22.7 µM | – | 21.6 µM | – | 27.3 µM | – | 31.9 µM | – | 29.7 µM | – | 19.9 µM | – | 26.1 µM | – | 25.2 µM | 16.4 µM | – |
| CCc1c2cc(OC)c(OC)cc2cc2c3cc(OC)c(OC)cc3cc[n+]12 (tested in a mixture with another compound) | – | > 85.3 µM | – | 57.2 µM | – | > 100 µM | – | > 83.1 µM | – | > 45.6 µM | – | 41.3 µM | – | 59.3 µM | – | > 100 µM | – | 48.8 µM | 48.9 µM | – |
| COc1cc2c(cc1OC)C1c3ccccc3CCN1CCC2 (stereo unspecified) | – | > 100 µM | – | > 100 µM | – | > 100 µM | – | > 100 µM | – | > 100 µM | – | > 100 µM | – | > 100 µM | – | > 100 µM | – | > 100 µM | > 100 µM | – |
| O=S(=O)(O)c1cc(S(=O)(=O)O)c2cc(N=Nc3c(O)ccc4ccccc34)ccc2c1 | – | > 100 µM | – | > 100 µM | – | > 100 µM | – | > 100 µM | – | > 100 µM | – | > 100 µM | – | > 100 µM | – | > 100 µM | – | > 100 µM | > 100 µM | – |
| CCOC(=O)c1nc2ccccc2n(CC)c1=O | – | > 100 µM | – | > 100 µM | – | > 100 µM | – | > 100 µM | – | > 100 µM | – | > 100 µM | – | > 100 µM | – | > 100 µM | – | > 100 µM | > 100 µM | – |
| CO/N=C(/C)c1cccc(Nc2nc3ccc(Cl)cc3c3[nH]c4ccccc4c23)c1 | – | 29.4 µM | – | 29.1 µM | – | 7.91 µM | – | 32.6 µM | – | 34.6 µM | – | 29.5 µM | – | 29.1 µM | – | 23.7 µM | – | 27.8 µM | 16.9 µM | – |
| O=C1CNC(=O)/C(=C/c2c[nH]c3ccccc23)N1 | – | > 100 µM | – | – | – | > 100 µM | – | > 100 µM | – | > 100 µM | – | > 100 µM | – | > 100 µM | – | > 100 µM | – | – | > 100 µM | – |
| COC(=O)c1c(C)[nH]c2c1C(=O)C(=O)c1nc(C)c(C)nc1-2 | – | 36.1 µM | – | 18.4 µM | – | 95 µM | – | 29.3 µM | – | > 100 µM | – | 23.6 µM | – | 24.6 µM | – | 27.6 µM | – | – | 20 µM | – |
| Clc1ccc(C2CC(c3cccc(Nc4ccncc4)c3)=NN2c2ccc(Cl)cc2)cc1 (stereo unspecified) | 1.65 µM | 3.18 µM | – | – | 2.18 µM | 5.52 µM | 1.55 µM | 3.08 µM | – | – | – | – | – | – | 1.54 µM | 2.88 µM | – | – | 3.15 µM | 1.74 µM |
| Cc1cc(C)c2c(n1)S(=O)(=O)N(CCCN1CCN(c3cccc(Cl)c3)CC1)/C(=C(\O)c1ccccc1)C2=O | – | > 100 µM | – | > 100 µM | – | 44.4 µM | – | > 100 µM | – | > 100 µM | – | > 100 µM | – | 55.4 µM | – | > 100 µM | – | > 100 µM | 60.2 µM | – |
| O=C(Nn1c(-c2cccs2)nc2ccc(I)cc2c1=O)c1ccccc1 | – | 82.6 µM | – | 73.1 µM | – | > 100 µM | – | > 100 µM | 43.8 µM | > 100 µM | – | > 100 µM | – | 31.1 µM | – | > 100 µM | – | – | 76.8 µM | – |
| OC(c1ccc(Cl)cc1)(c1ccc(Cl)cc1)c1cncnc1 | – | – | – | 37.8 µM | – | 52.3 µM | – | 31.7 µM | – | 69.8 µM | – | – | – | 40.5 µM | – | 36.6 µM | – | 33.9 µM | 27 µM | – |
